US20200264182A1, “METHOD FOR DETECTING PROSTATE CANCER” (J-OIL MILLS, INC., priority 2017, published 2020)

How the values were obtained:
FAC binding constant = conditions: at 25° C.
Protocol: (§1) Details of the FAC method are described in Patent Document 2 filed by some of the present applicants, for example.
(§2) Binding constants (at 25° C.) of PhoSL, SRL, NSL and LSL belonging to the fucose α1→6 specific lectin for various sugar chains are shown in Tables 2 to 5.

[1] = FAC binding constant (Table 5 entry); conditions: Table 5: sugar chain having no fucose; at 25° C.
Protocol: as §1, §2

serum fucosylated PSA = test: Sandwich ELISA, anti-PSA antibody and biotin-labeled lectin; assay type: binding, human; conditions: for Δ (=A − B): reaction value of Prostate cancer 4 minus Healthy 1; for lectin reaction value B of Healthy 1: serum of Healthy 1; for lectin reaction value A of Prostate cancer 4: serum of Prostate cancer 4, GS 6 (3 + 3)
Protocol: The anti-PSA antibody from which sugar chains had been removed was diluted to 5 μg/mL with PBS. 25 μL of this diluted solution was added to each well of an ELISA plate and allowed to stand at 37° C. for 12 hours, and then the additive solution was discarded.
150 μL of PBS containing 0.05% Tween 20 (product name: polyoxyethylene sorbitan monolaurate, from Nacalai Tesque, Inc.) was added to each well, and then the additive solution was discarded. This manipulation was repeated three times in total.
25 μL of 1% BSA/PBS was added to each well and allowed to stand at 37° C. for 1 hour, and then the additive solution was discarded.
150 μL of PBS containing 0.05% Tween 20 was added to each well, and then the additive solution was discarded. This manipulation was repeated three times in total.
To graph a calibration curve, 25 μL of the fucosylated PSA reference standard diluted with 1% BSA/PBS to a concentration of 0 to 200 ng/mL was added to each well and allowed to stand at room temperature for 1 hour, and then the additive solution was discarded. In addition, to detect the fucosylated PSA in the serum of the subject by the lectin, 25 μL of serum of “Healthy 1” and “Prostate cancer 4” 2-fold diluted with PBS was added to each well and allowed to stand at room temperature for 1 hour, and then the additive solution was discarded.
In Reference Example 1, 25 μL of a biotin-labeled PhoSL diluted to 0.1 μg/mL with 0.1% BSA/PBS (pH 7.4) was added to each well and allowed to stand at 4° C. for 30 minutes, and then the additive solution was discarded. In Example 1, 25 μL of a biotin-labeled PhoSL diluted to 0.1 μg/mL with 0.1% BSA/10-fold diluted PBS+glycine-NaOH (pH 9.6) was added to each well and allowed to stand at 4° C. for 30 minutes, and then the additive solution was discarded.
25 μL of a horseradish peroxidase (HRP)-labeled streptavidin solution (from Vector Laboratories, Inc., concentration: 0.4 μg/mL, in 1% BSA/PBS) was added to each well and allowed to stand at room temperature for 30 minutes, and then the additive solution was discarded.
25 μL of chromogenic substrate for HRP (product name: TMB, from Kirkegaard & Perry Laboratories, Inc.) was added to each well and allowed to stand at room temperature for 10 minutes.
25 μL of 1M phosphoric acid was added to terminate the reaction.
Absorbance (Ab) at 450 nm and 630 nm was measured using a plate reader, and a measurement (Ab450-630) was obtained.
A calibration curve was graphed by plotting signals (reaction values, Ab450-630) of the fucosylated PSA reference standard with the biotin-labeled PhoSL. A Signal (Ab450-630) of the biotin-labeled PhoSL corresponding to the fucosylated PSA concentration of 10 ng/mL was defined as 10 U/mL.
The signals of biotin-labeled PhoSL (Ab450-630) for the serum fucosylated PSA in the subject samples A were assigned to the calibration curve to calculate reaction values (unit: U/mL).
The PhoSL reaction values for the subject samples A were measured by the same operation as in Example 1. From the PhoSL reaction values, an average value and a median value were determined. Furthermore, a standard cutoff value (89.7 U/mL) was used to determine a detection rate (positive rate) of the prostate cancer patients, and a false detection rate (false positive rate) of the healthy persons.
Comparative Example 2 in Table 9 indicates results of detecting the serum fucosylated PSA using AAL (AAL reaction values) in the subject samples A. Specifically, in Reference Example 1, AAL reaction values were measured in the same manner as in Reference Example 1 except that the biotin-labeled PhoSL was replaced with a biotin-labeled AAL. A standard cut-off value for the AAL reaction values was 894.8 U/mL. As in Example 2, an average value, a median value, a positive rate and a false positive rate were determined from the AAL reaction values.

Substance: SRL: fucose α1→6 specific lectin that can be extracted from Stropharia rugosoannulata, SEQ ID No. 2
- Binding constant for sugar chain No. 701 (FAC binding constant; sugar chain having no fucose): <1000 M⁻¹
- Binding constant for sugar chain No. 702 (FAC binding constant; sugar chain having no fucose): <1000 M⁻¹
- Binding constant for sugar chain No. 703 (FAC binding constant; sugar chain having no fucose): <1000 M⁻¹
- Binding constant for sugar chain No. 704 (FAC binding constant; sugar chain having no fucose): <1000 M⁻¹
- Binding constant for sugar chain No. 705 (FAC binding constant; sugar chain having no fucose): <1000 M⁻¹
- Binding constant for sugar chain No. 706 (FAC binding constant; sugar chain having no fucose): <1000 M⁻¹
- Binding constant for sugar chain No. 707 (FAC binding constant; sugar chain having no fucose): <1000 M⁻¹
- Binding constant for sugar chain No. 708 (FAC binding constant; sugar chain having no fucose): <1000 M⁻¹
- Binding constant for sugar chain No. 709 (FAC binding constant; sugar chain having no fucose): <1000 M⁻¹
- Binding constant for sugar chain No. 710 (FAC binding constant; sugar chain having no fucose): <1000 M⁻¹
- Binding constant for sugar chain No. 711 (FAC binding constant; sugar chain having no fucose): <1000 M⁻¹
- Binding constant for sugar chain No. 712 (FAC binding constant; sugar chain having no fucose): <1000 M⁻¹
- Binding constant for sugar chain No. 713 (FAC binding constant; sugar chain having no fucose): <1000 M⁻¹
- Binding constant for sugar chain No. 715 (FAC binding constant; sugar chain having no fucose): <1000 M⁻¹
- Binding constant for sugar chain No. 716 (FAC binding constant; sugar chain having no fucose): <1000 M⁻¹
- Binding constant for sugar chain No. 717 (FAC binding constant; sugar chain having no fucose): <1000 M⁻¹
- Binding constant for sugar chain No. 724 (FAC binding constant; sugar chain having no fucose): <1000 M⁻¹
- Binding constant for sugar chain No. 725 (FAC binding constant; sugar chain having no fucose): <1000 M⁻¹
- Binding constant for sugar chain No. 732 (FAC binding constant; sugar chain having no fucose): <1000 M⁻¹
- Binding constant for sugar chain No. 733 (FAC binding constant; sugar chain having no fucose): <1000 M⁻¹
- Binding constant for sugar chain No. 734 (FAC binding constant; sugar chain having no fucose): <1000 M⁻¹
- Binding constant for sugar chain No. 735 (FAC binding constant; sugar chain having no fucose): <1000 M⁻¹
- Binding constant for sugar chain No. 736 (FAC binding constant; sugar chain having no fucose): <1000 M⁻¹
- Binding constant for sugar chain No. 737 (FAC binding constant; sugar chain having no fucose): <1000 M⁻¹
- Binding constant for sugar chain No. 738 (FAC binding constant; sugar chain having no fucose): <1000 M⁻¹
- Binding constant for sugar chain No. 901 (FAC binding constant; sugar chain having no fucose): <1000 M⁻¹
- Binding constant for sugar chain No. 902 (FAC binding constant; sugar chain having no fucose): <1000 M⁻¹
- Binding constant for sugar chain No. 903 (FAC binding constant; sugar chain having no fucose): <1000 M⁻¹
- Binding constant for sugar chain No. 905 (FAC binding constant; sugar chain having no fucose): <1000 M⁻¹
- Binding constant for sugar chain No. 906 (FAC binding constant; sugar chain having no fucose): <1000 M⁻¹
- Binding constant for sugar chain No. 907 (FAC binding constant; sugar chain having no fucose): <1000 M⁻¹
- Binding constant for sugar chain No. 015 (FAC binding constant; sugar chain having α1→6 fucose): 49000 M⁻¹
- Binding constant for sugar chain No. 201 (FAC binding constant; sugar chain having α1→6 fucose): 64000 M⁻¹
- Binding constant for sugar chain No. 202 (FAC binding constant; sugar chain having α1→6 fucose): 61000 M⁻¹
- Binding constant for sugar chain No. 203 (FAC binding constant; sugar chain having α1→6 fucose): 52000 M⁻¹
- Binding constant for sugar chain No. 401 (FAC binding constant; sugar chain having α1→6 fucose): 57000 M⁻¹
- Binding constant for sugar chain No. 402 (FAC binding constant; sugar chain having α1→6 fucose): 44000 M⁻¹
- Binding constant for sugar chain No. 403 (FAC binding constant; sugar chain having α1→6 fucose): 56000 M⁻¹
- Binding constant for sugar chain No. 404 (FAC binding constant; sugar chain having α1→6 fucose): 58000 M⁻¹
- Binding constant for sugar chain No. 405 (FAC binding constant; sugar chain having α1→6 fucose): 54000 M⁻¹
- Binding constant for sugar chain No. 406 (FAC binding constant; sugar chain having α1→6 fucose): 38000 M⁻¹
- Binding constant for sugar chain No. 407 (FAC binding constant; sugar chain having α1→6 fucose): 10000 M⁻¹
- Binding constant for sugar chain No. 410 (FAC binding constant; sugar chain having α1→6 fucose): 39000 M⁻¹
- Binding constant for sugar chain No. 418 (FAC binding constant; sugar chain having α1→6 fucose): 4300 M⁻¹
- Binding constant for sugar chain No. 601 (FAC binding constant; sugar chain having α1→6 fucose): 10000 M⁻¹
- Binding constant for sugar chain No. 602 (FAC binding constant; sugar chain having α1→6 fucose): 32000 M⁻¹
- Binding constant for sugar chain No. 728 [1]: <1000 M⁻¹
- Δ (=A − B) (serum fucosylated PSA; pH in lectin reaction 7.4): 126.3 U/mL
- Δ (=A − B) (serum fucosylated PSA; pH in lectin reaction 9.6): 217.7 U/mL
- lectin reaction value B of Healthy 1 (serum fucosylated PSA; pH in lectin reaction 7.4): 20.0 U/mL
- lectin reaction value B of Healthy 1 (serum fucosylated PSA; pH in lectin reaction 9.6): 16.8 U/mL
- lectin reaction value A of Prostate cancer 4 (serum fucosylated PSA; pH in lectin reaction 7.4): 146.3 U/mL
- lectin reaction value A of Prostate cancer 4 (serum fucosylated PSA; pH in lectin reaction 9.6): 234.5 U/mL
